Results as given in ChEMBL document CHEMBL3856266, “Melodinine V, an antitumor bisindole alkaloid with selective cytotoxicity from Melodinus henryi” (Bioorg Med Chem Lett, 2016).
Active and inactive are the calls of the source. The rule behind the calls is not given here.

Tests used:
HT-29 [1] = experiment: Induction of apoptosis in human HT-29 cells assessed as increase in histone associated DNA fragmentation after 48 hrs by ELISA; format: functional, cell-based
[2] = Cell cycle arrest in human HT-29 cells assessed as accumulation in G1 phase at 7.4 uM after 24 hrs by propidium iodide staining-based flow cytometry; format: functional
[3] = Cell cycle arrest in human HT-29 cells assessed as accumulation in G1 phase at 9.8 uM after 24 hrs by propidium iodide staining-based flow cytometry; format: functional
[4] = Cytotoxicity against human PANC1 cells assessed as reduction in cell viability after 48 hrs by MTT assay; format: functional, cell-based; settings: PANC-1, 48 h
[5] = (§1) Antiproliferative activity against human HT-29 cells after 48 hrs by [methyl-3H]-thymidine incorporation assay; format: functional, cell-based; settings: HT-29, 48 h
HT-29 [6] = experiment: as §1; format: functional, cell-based
[7] = Cytotoxicity against human HT-29 cells assessed as reduction in cell viability after 48 hrs by MTT assay; format: functional, cell-based; settings: HT-29, 48 h
[8] = Cytotoxicity against human HS27 cells assessed as reduction in cell viability up to 100 uM after 48 hrs by MTT assay; format: toxicity, cell-based; settings: hs27, 48 h
[9] = Cytotoxicity against human MCF7 cells assessed as reduction in cell viability after 48 hrs by MTT assay; format: functional, cell-based; settings: MCF7, 48 h

SMILES: CC[C@]12CCCN3CCc4c(n(c5ccccc45)[C@@H](c4ccc(O)c5c4N=C4CC[C@]6(CC)CCCN7CC[C@@]45[C@@H]76)C1)[C@@H]32
- Activity (HT-29 [1]): Dose-dependent effect
- Activity [2]: Active
- Activity [3]: Active
- IC50 [4]: 28.1 µM
- IC50 [5]: 2.3 µM
- inhibition (HT-29 [6]): Dose-dependent effect
- IC50 [7]: 4.9 µM
- Activity [8]: Non-Toxic
- IC50 [9]: 54.5 µM
